Paper PMC11822212, “High-throughput screening identifies Aurora kinase B as a critical therapeutic target for Merkel cell carcinoma” (Nature Communications, 2025)
Structures can show the parent of a compound that is named as a salt.

Tests used:
MKL-2 cells (VP-MCC) = test: qHTS cell viability (CellTiter-Glo, 72 h; primary and follow-up small molecule screen); format: cell-based, human; settings: for MKL2_AUC: MIPE library, 11-point DRC, sheet S2E; for Area under the dose-response curve (AUC) MKL-2 Replicate 1 / Area under the dose-response curve (AUC) MKL-2 Replicate 2 / Area under the dose-response curve (AUC) MKL-2 Replicate 3: follow-up screen
[1] = system: MCC cell lines (WAGA, MKL-1, MKL-2, MCC13, MCC26, UISO); test: qHTS cell viability, all six MCC cell lines as a group (mean AUC, MCC.avg); format: cell-based, human; settings: MIPE library, mean AUC of six MCC cell lines, sheet S2E
WAGA cells (VP-MCC) = test: qHTS cell viability (CellTiter-Glo, 72 h; primary and follow-up small molecule screen); format: cell-based, human; settings: for WAGA_AUC: MIPE library, 11-point DRC, sheet S2E; for Area under the dose-response curve (AUC) WAGA Replicate 1 / Area under the dose-response curve (AUC) WAGA Replicate 2 / Area under the dose-response curve (AUC) WAGA Replicate 3: follow-up screen
MCC26 cells (VN-MCC) = test: as above; format: cell-based, human; settings: for MCC26_AUC: MIPE library, 11-point DRC, sheet S2E; for Area under the dose-response curve (AUC) MCC26 Replicate 1 / Area under the dose-response curve (AUC) MCC26 Replicate 2 / Area under the dose-response curve (AUC) MCC26 Replicate 3: follow-up screen
CRL-7250 cells = test: qHTS cell viability (CellTiter-Glo, 72 h; primary screen), control cell line; format: cell-based; settings: MIPE library, 11-point DRC, control cell line, sheet S2E
[2] = system: VN-MCC cell lines (MCC13, MCC26, UISO); test: qHTS cell viability, VN-MCC cell lines as a group (mean AUC, VN.MCC.avg); format: cell-based, human; settings: MIPE library, sheet S2E; for Control-VN-MCC: Control AUC minus VN-MCC AUC (therapeutic window); for VN-MCC_Avg_AUC: mean AUC of VN-MCC cell lines
[3] = system: control cell lines (HACAT, HEK293T, CRL-7250, NIH-3T3); test: qHTS cell viability, control cell lines as a group (mean AUC, Control.avg); format: cell-based; settings: MIPE library, mean AUC of control cell lines, sheet S2E
HACAT cells = test: qHTS cell viability (CellTiter-Glo, 72 h; primary screen), control cell line; format: cell-based, human; settings: MIPE library, 11-point DRC, control cell line, sheet S2E
MCC13 cells (VN-MCC) = test: qHTS cell viability (CellTiter-Glo, 72 h; primary and follow-up small molecule screen); format: cell-based, human; settings: for MCC13_AUC: MIPE library, 11-point DRC, sheet S2E; for Area under the dose-response curve (AUC) MCC13 Replicate 1 / Area under the dose-response curve (AUC) MCC13 Replicate 2 / Area under the dose-response curve (AUC) MCC13 Replicate 3: follow-up screen
[4] = system: VP-MCC cell lines (WAGA, MKL-1, MKL-2); test: qHTS cell viability, VP-MCC cell lines as a group (mean AUC, VP.MCC.avg); format: cell-based, human; settings: MIPE library, sheet S2E; for Control-VP-MCC: Control AUC minus VP-MCC AUC (therapeutic window); for VP-MCC_Avg_AUC: mean AUC of VP-MCC cell lines
NIH-3T3 cells = test: qHTS cell viability (CellTiter-Glo, 72 h; primary screen), control cell line; format: cell-based, mouse; settings: MIPE library, 11-point DRC, control cell line, sheet S2E
[5] = system: six MCC cell lines and four control cell lines; test: qHTS cell viability, all 10 cell lines screened; format: cell-based; settings: MIPE library, Control AUC minus MCC AUC (therapeutic window), sheet S2E
HEK293T cells = test: qHTS cell viability (CellTiter-Glo, 72 h; primary screen), control cell line; format: cell-based, human; settings: MIPE library, 11-point DRC, control cell line, sheet S2E
UISO cells (VN-MCC) = test: qHTS cell viability (CellTiter-Glo, 72 h; primary and follow-up small molecule screen); format: cell-based, human; settings: for UISO_AUC: MIPE library, 11-point DRC, sheet S2E; for Area under the dose-response curve (AUC) UISO Replicate 1 / Area under the dose-response curve (AUC) UISO Replicate 2 / Area under the dose-response curve (AUC) UISO Replicate 3: follow-up screen
MKL-1 cells (VP-MCC) = test: as above; format: cell-based, human; settings: for MKL1_AUC: MIPE library, 11-point DRC, sheet S2E; for Area under the dose-response curve (AUC) MKL-1 Replicate 1 / Area under the dose-response curve (AUC) MKL-1 Replicate 2 / Area under the dose-response curve (AUC) MKL-1 Replicate 3: follow-up screen

Structure (SMILES) | MKL2_AUC (MKL-2 cells (VP-MCC)) | Area under the dose-response curve (AUC) MKL-2 Replicate 1 (MKL-2 cells (VP-MCC)) | Area under the dose-response curve (AUC) MKL-2 Replicate 2 (MKL-2 cells (VP-MCC)) | Area under the dose-response curve (AUC) MKL-2 Replicate 3 (MKL-2 cells (VP-MCC)) | MCC_Avg_AUC [1] | WAGA_AUC (WAGA cells (VP-MCC)) | Area under the dose-response curve (AUC) WAGA Replicate 1 (WAGA cells (VP-MCC)) | Area under the dose-response curve (AUC) WAGA Replicate 2 (WAGA cells (VP-MCC)) | Area under the dose-response curve (AUC) WAGA Replicate 3 (WAGA cells (VP-MCC)) | MCC26_AUC (MCC26 cells (VN-MCC)) | Area under the dose-response curve (AUC) MCC26 Replicate 1 (MCC26 cells (VN-MCC)) | Area under the dose-response curve (AUC) MCC26 Replicate 2 (MCC26 cells (VN-MCC)) | Area under the dose-response curve (AUC) MCC26 Replicate 3 (MCC26 cells (VN-MCC)) | CRL7250_AUC (CRL-7250 cells) | Control-VN-MCC [2] | VN-MCC_Avg_AUC [2] | Control_Avg_AUC [3] | HACAT_AUC (HACAT cells) | MCC13_AUC (MCC13 cells (VN-MCC)) | Area under the dose-response curve (AUC) MCC13 Replicate 1 (MCC13 cells (VN-MCC)) | also measured
O=c1cc(-c2ccc(O)cc2)oc2cc(O)cc(O)c12 [Apigenin] | 357.96 | 530.0 | 507.8 | 497.7 | 437.193 | 368.999 | 549.1 | 497.7 | 481.5 | 531.61 | 480.1 | 461.0 | 496.4 | 438.96 | -46.0631 | 506.237 | 460.174 | 470.945 | 501.623 | 539.3 | Area under the dose-response curve (AUC) MCC13 Replicate 2 (MCC13 cells (VN-MCC)): 539.6; Area under the dose-response curve (AUC) MCC13 Replicate 3 (MCC13 cells (VN-MCC)): 514.9; Control-VP-MCC [4]: 92.024; VP-MCC_Avg_AUC [4]: 368.15; NIH3T3_AUC (NIH-3T3 cells): 470.997; Control-MCC [5]: 22.9804; HEK293T_AUC (HEK293T cells): 459.794; UISO_AUC (UISO cells (VN-MCC)): 485.478; Area under the dose-response curve (AUC) UISO Replicate 1 (UISO cells (VN-MCC)): 472.2; Area under the dose-response curve (AUC) UISO Replicate 2 (UISO cells (VN-MCC)): 489.3; Area under the dose-response curve (AUC) UISO Replicate 3 (UISO cells (VN-MCC)): 503.1; MKL1_AUC (MKL-1 cells (VP-MCC)): 377.491; Area under the dose-response curve (AUC) MKL-1 Replicate 1 (MKL-1 cells (VP-MCC)): 510.1; Area under the dose-response curve (AUC) MKL-1 Replicate 2 (MKL-1 cells (VP-MCC)): 521.0; Area under the dose-response curve (AUC) MKL-1 Replicate 3 (MKL-1 cells (VP-MCC)): 502.5
CN1CCCC(n2nc(Cc3ccc(Cl)cc3)c3ccccc3c2=O)CC1 (stereo not shown) [Azelastine hydrochloride] | 320.643 | 463.4 | 469.5 | 473.5 | 373.345 | 268.398 | 515.6 | 481.7 | 478.9 | 431.003 | 450.4 | 432.6 | 475.6 | 443.828 | 23.1078 | 436.354 | 459.462 | 463.226 | 451.766 | 500.3 | Area under the dose-response curve (AUC) MCC13 Replicate 2 (MCC13 cells (VN-MCC)): 476.4; Area under the dose-response curve (AUC) MCC13 Replicate 3 (MCC13 cells (VN-MCC)): 479.3; Control-VP-MCC [4]: 149.127; VP-MCC_Avg_AUC [4]: 310.335; NIH3T3_AUC (NIH-3T3 cells): 471.996; Control-MCC [5]: 86.1174; HEK293T_AUC (HEK293T cells): 458.798; UISO_AUC (UISO cells (VN-MCC)): 426.293; Area under the dose-response curve (AUC) UISO Replicate 1 (UISO cells (VN-MCC)): 472.1; Area under the dose-response curve (AUC) UISO Replicate 2 (UISO cells (VN-MCC)): 488.6; Area under the dose-response curve (AUC) UISO Replicate 3 (UISO cells (VN-MCC)): 481.1; MKL1_AUC (MKL-1 cells (VP-MCC)): 341.965; Area under the dose-response curve (AUC) MKL-1 Replicate 1 (MKL-1 cells (VP-MCC)): 494.5; Area under the dose-response curve (AUC) MKL-1 Replicate 2 (MKL-1 cells (VP-MCC)): 511.5; Area under the dose-response curve (AUC) MKL-1 Replicate 3 (MKL-1 cells (VP-MCC)): 475.2
